# Source: patent publication US10961238B2, “Modulators of hedgehog (Hh) signaling pathway” (E-THERAPEUTICS PLC, priority 2016, dated 2021)
# Test system: C3H10T1/2 cells
# Test: C3H assay: differentiation of C3H10T1/2 cells by mSHH, measurement of alkaline phosphatase
# Type: cell-based, mouse
# Settings: Mus musculus, C3H 10T1/2, 72 h, read-out: IC50 Ranges
row,Structure (SMILES),IC50
1,"O=C(OCCC1CCOCC1)N1CC(S(=O)(=O)N2CCC(c3c[nH]c4ncccc34)CC2)C1 [Compound 60, 2-Tetrahydropyran-4-ylethyl 3-[[4-(1H-pyrrolo[2,3-b]pyridin-3-yl)-1-piperidyl]sulfonyl]azetidine-1-carboxylate]",10 to 100 nM

# Same assay, conditions: Mus musculus, C3H 10T1/2; C3H10T1/2 cells stimulated with mSHH for 72 hours; alkaline phosphatase activity; read-out: IC50 Ranges
row,Structure (SMILES),IC50
1,"Cc1noc(C)c1CN1CC(S(=O)(=O)N2CCC(c3c[nH]c4ncccc34)CC2)C1 [Compound 61, 3,5-dimethyl-4-[[3-[4-(1H-pyrrolo [2,3-b]pyridin-3-yl)piperidin-1-yl]sulfonylaze-tidin-1-yl]methyl]-1,2-oxazole]",1000 to 10000 nM
2,"Cc1noc(C)c1COC(=O)N1CC(S(=O)(=O)N2CCC(c3c[nH]c4ncccc34)CC2)C1 [Compound 62, (3,5-Dimethylisoxazol-4-yl)methyl 3-[[4-(1H-pyrrolo[2,3-b]pyridin-3-yl)-1-piperidyl]sulfonyl]azetidine-1-carboxylate]",10 to 100 nM
3,"O=S(=O)(C1CN(c2ccncc2)C1)N1CCC(c2c[nH]c3ncccc23)CC1 [Compound 71, 3-[1-(1-pyridin-4-ylazetidin-3-yl)-sulfonylpiper-idin-4-yl]-1H-pyrrolo[2,3-b]pyridine]",1000 to 10000 nM
4,"O=C(c1ccncc1)N1CC(S(=O)(=O)N2CCC(c3c[nH]c4ncccc34)CC2)C1 [Compound 72, pyridin-4-yl-[3-[4-(1H-pyrrolo[2,3-b]pyridin-3-yl)piperidin-1-yl]sulfonylaze-tidin-1-yl]methanone]",1000 to 10000 nM
5,"CC(C)(C)c1ccc(C(=O)N2CC(S(=O)(=O)N3CCC(c4c[nH]c5ncccc45)CC3)C2)cc1 [Compound 74, (4-tert-butylphenyl)-[3-[4-(1H-pyrrolo[2,3-b]pyridin-3-yl)piperidin-1-yl]sulfonylaze-tidin-1-yl]methanone]",1000 to 10000 nM
6,"O=C(N1CC(S(=O)(=O)N2CCC(c3c[nH]c4ncccc34)CC2)C1)n1ccnc1 [Compound 79, imidazol-1-yl-[3-[4-(1H-pyrrolo[2,3-b]pyridin-3-yl)piperidin-1-yl]sulfonylaze-tidin-1-yl]methanone]",1000 to 10000 nM
7,"O=C(OCc1ccco1)N1CC(S(=O)(=O)N2CCC(c3c[nH]c4ncccc34)CC2)C1 [Compound 83, furan-2-ylmethyl 3-[4-(1H-pyrrolo[2,3-b]pyridin-3-yl)piperidin-1-yl]sulfonylaze-tidine-1-carboxylate]",1000 to 10000 nM
8,"O=C(N1CCCC1)N1CC(S(=O)(=O)N2CCC(c3c[nH]c4ncccc34)CC2)C1 [Compound 87, pyrrolidin-1-yl-[3-[4-(1H-pyrrolo[2,3-b]pyridin-3-yl)piperidin-1-yl]sulfonylaze-tidin-1-yl]methanone]",100 to 1000 nM
9,"CC(C)N1CC(S(=O)(=O)N2CCC(c3c[nH]c4ncccc34)CC2)C1 [Compound 89, 3-[1-(1-propan-2-ylazetidin-3-yl)sulfonylpiper-idin-4-yl]-1H-pyrrolo[2,3-b]pyridine]",1000 to 10000 nM
10,"CN(C)S(=O)(=O)N1CC(S(=O)(=O)N2CCC(c3c[nH]c4ncccc34)CC2)C1 [Compound 90, N,N-dimethyl-3-[4-(1H-pyrrolo[2,3-b]pyridin-3-yl)piperidin-1-yl]sulfonylaze-tidine-1-sulfonamide]",100 to 1000 nM
11,"CS(=O)(=O)N1CC(S(=O)(=O)N2CCC(c3c[nH]c4ncccc34)CC2)C1 [Compound 91, 3-[1-(1-Methylsulfonylazetidin-3-yl)sulfonyl-4-piperidyl]-1H-pyrrolo[2,3-b]pyridine]",100 to 1000 nM
12,"CN(C)S(=O)(=O)n1cc(C2CCN(S(=O)(=O)C3CN(C(=O)OC(C)(C)C)C3)CC2)c2cccnc21 [Compound 92, tert-butyl 3-[4-[1-(dimethylsulfamoyl)pyrrolo[2,3-b]pyridin-3-yl]piperidin-1-yl]sulfonylaze-tidine-1-carboxylate]",1000 to 10000 nM
13,"CC(C)(C)OC(=O)N1CC(S(=O)(=O)N2CCC(c3cn(S(C)(=O)=O)c4ncccc34)CC2)C1 [Compound 93, tert-Butyl 3-[[4-(1-methylsulfonylpyrrolo[2,3-b]pyridin-3-yl)-1-piperidyl]sulfonyl]azetidine-1-carboxylate]",1000 to 10000 nM
14,"Cn1cc(C2CCN(S(=O)(=O)C3CN(C(=O)OC(C)(C)C)C3)CC2)c2cccnc21 [Compound 94, tert-Butyl 3-[[4-(1-methylpyrrolo[2,3-b]pyridin-3-yl)-1-piperidyl]sulfonyl]azetidine-1-carboxylate]",100 to 1000 nM

# Other lines, results leading:
row,IC50,Structure (SMILES)
1,10 to 100 nM,"Cc1noc(C)c1CCN1CC(S(=O)(=O)N2CCC(c3c[nH]c4ncccc34)CC2)C1 [Compound 56, 3,5-Dimethyl-4-[2-[3-[[4-(1H-pyrrolo[2,3-b]pyridin-3-yl)-1-piperidyl]sulfonyl]azetidin-1-yl]ethyl]isoxazole]"
2,< 10 nM,"O=C(NC1(C(F)(F)F)CC1)N1CC(S(=O)(=O)N2CCC(c3c[nH]c4ncccc34)CC2)C1 [Compound 57, 3-[[4-(1H-Pyrrolo[2,3-b]pyridin-3-yl)-1-piperidyl]sulfonyl]-N-[1-(trifluoromethyl)cyclopropyl]azetidine-1-carboxamide]"
3,100 to 1000 nM,"O=C(OCCCN1CCCCC1)N1CC(S(=O)(=O)N2CCC(c3c[nH]c4ncccc34)CC2)C1 [Compound 58, 3-piperidin-1-ylpropyl 3-[4-(1H-pyrrolo[2,3-b]pyridin-3-yl)piperidin-1-yl]sulfonylaze-tidine-1-carboxylate]"
4,10 to 100 nM,"O=C(OCCN1CCCCC1)N1CC(S(=O)(=O)N2CCC(c3c[nH]c4ncccc34)CC2)C1 [Compound 59, 2-piperidin-1-ylethyl 3-[4-(1H-pyrrolo [2,3-b]pyridin-3-yl)piperidin-1-yl]sulfonylaze-tidine-1-carboxylate]"
5,10 to 100 nM,"Cc1noc(C)c1CC(=O)N1CC(S(=O)(=O)N2CCC(c3c[nH]c4ncccc34)CC2)C1 [Compound 63, 2-(3,5-dimethyl-1,2-oxazol-4-yl)-1-[3-[4-(1H-pyrrolo[2,3-b]pyridin-3-yl)piperidin-1-yl]sulfonylaze-tidin-1-yl]ethanone]"
6,10 to 100 nM,"CC1(C)CCCC(C)(C)N1C(=O)N1CC(S(=O)(=O)N2CCC(c3c[nH]c4ncccc34)CC2)C1 [Compound 64, [3-[4-(1H-pyrrolo[2,3-b]pyridin-3-yl)piperidin-1-yl]sulfonylaze-tidin-1-yl]-(2,2,6,6-tetramethylpiperidin-1-yl)methanone]"
7,100 to 1000 nM,"COCCOC(=O)N1CC(S(=O)(=O)N2CCC(c3c[nH]c4ncccc34)CC2)C1 [Compound 65, 2-methoxyethyl 3-[4-(1H-pyrrolo[2,3-b]pyridin-3-yl)piperidin-1-yl]sulfonylaze-tidine-1-carboxylate]"
8,10 to 100 nM,"CC(C)(C)COC(=O)N1CC(S(=O)(=O)N2CCC(c3c[nH]c4ncccc34)CC2)C1 [Compound 66, 2,2-dimethylpropyl 3-[4-(1H-pyrrolo[2,3-b]pyridin-3-yl)piperidin-1-yl]sulfonylaze-tidine-1-carboxylate]"
9,100 to 1000 nM,"O=S(=O)(C1CN(Cc2cccs2)C1)N1CCC(c2c[nH]c3ncccc23)CC1 [Compound 68, 3-[1-[1-(thiophen-2-ylmethyl)azetidin-3-yl]sulfonylpiper-idin-4-yl]-1H-pyrrolo[2,3-b]pyridine]"
10,100 to 1000 nM,"O=S(=O)(C1CN(Cc2ccc[nH]2)C1)N1CCC(c2c[nH]c3ncccc23)CC1 [Compound 69, 3-[1-[1-(1H-pyrrol-2-ylmethyl)azetidin-3-yl]sulfonylpiper-idin-4-yl]-1H-pyrrolo[2,3-b]pyridine]"
11,100 to 1000 nM,"O=S(=O)(C1CN(Cc2ccco2)C1)N1CCC(c2c[nH]c3ncccc23)CC1 [Compound 70, 3-[1-[1-(furan-2-ylmethyl)azetidin-3-yl]sulfonylpiper-idin-4-yl]-1H-pyrrolo[2,3-b]pyridine]"
12,100 to 1000 nM,"CC(C)(C)C(=O)N1CC(S(=O)(=O)N2CCC(c3c[nH]c4ncccc34)CC2)C1 [Compound 73, 2,2-dimethyl-1-[3-[4-(1H-pyrrolo[2,3-b]pyridin-3-yl)piperidin-1-yl]sulfonylaze-tidin-1-yl]propan-1-one]"
13,10 to 100 nM,"O=C(OCc1ccccc1)N1CC(S(=O)(=O)N2CCC(c3c[nH]c4ncccc34)CC2)C1 [Compound 76, benzyl 3-[4-(1H-pyrrolo[2,3-b]pyridin-3-yl)piperidin-1-yl]sulfonylaze-tidine-1-carboxylate]"
14,10 to 100 nM,"O=C(Oc1ccc(F)cc1)N1CC(S(=O)(=O)N2CCC(c3c[nH]c4ncccc34)CC2)C1 [Compound 77, (4-fluorophenyl) 3-[4-(1H-pyrrolo[2,3-b]pyridin-3-yl)piperidin-1-yl]sulfonylaze-tidine-1-carboxylate]"
15,100 to 1000 nM,"O=C(NCc1cocn1)N1CC(S(=O)(=O)N2CCC(c3c[nH]c4ncccc34)CC2)C1 [Compound 78, N-(1,3-oxazol-4-ylmethyl)-3-[4-(1H-pyrrolo[2,3-b]pyridin-3-yl)piperidin-1-yl]sulfonylaze-tidine-1-carboxamide]"
16,100 to 1000 nM,"O=C(NCc1cncs1)N1CC(S(=O)(=O)N2CCC(c3c[nH]c4ncccc34)CC2)C1 [Compound 80, 3-[4-(1H-pyrrolo[2,3-b]pyridin-3-yl)piperidin-1-yl]sulfonyl-N-(1,3-thiazol-5-ylmethyl)azetidine-1-carboxamide]"
17,100 to 1000 nM,"Cn1ccc(CNC(=O)N2CC(S(=O)(=O)N3CCC(c4c[nH]c5ncccc45)CC3)C2)n1 [Compound 81, N-[(1-Methylpyrazol-3-yl)methyl]-3-[[4-(1H-pyrrolo[2,3-b]pyridin-3-yl)-1-piperidyl]sulfonyl]azetidine-1-carboxamide]"
18,100 to 1000 nM,"CCN(CC)C(=O)N1CC(S(=O)(=O)N2CCC(c3c[nH]c4ncccc34)CC2)C1 [Compound 82, N,N-diethyl-3-[4-(1H-pyrrolo[2,3-b]pyridin-3-yl)piperidin-1-yl]sulfonylaze-tidine-1-carboxamide]"
19,10 to 100 nM,"O=C(NCc1cccs1)N1CC(S(=O)(=O)N2CCC(c3c[nH]c4ncccc34)CC2)C1 [Compound 85, 3-[4-(1H-pyrrolo[2,3-b]pyridin-3-yl)piperidin-1-yl]sulfonyl-N-(thiophen-2-ylmethyl)azetidine-1-carboxamide]"
20,100 to 1000 nM,"O=C(N1CCCCC1)N1CC(S(=O)(=O)N2CCC(c3c[nH]c4ncccc34)CC2)C1 [Compound 86, piperidin-l-yl-[3-[4-(1H-pyrrolo[2,3-b]pyridin-3-yl)piperidin-1-yl]sulfonylaze-tidin-1-yl]methanone]"
